# Legend:
# human B1R = molecular target: T1, human B1R (Homo sapiens, UniProt P46663); assay: Functional investigation on the bradykinin receptor 1 (B1R), FLIPR Ca2+ assay, hB1R cells; type: cell-based; conditions: % inhibition human B1R at 10 μM; CHO K1 cells transfected with human B1R; agonist Lys-Des-Arg9 bradykinin at EC80; read-out: % Inh. (hum. B1R) 10 μM
# T1 construct: expressed in transfected cells; host or cells: CHO K1 cells
# T1 sequence (P46663 1-353): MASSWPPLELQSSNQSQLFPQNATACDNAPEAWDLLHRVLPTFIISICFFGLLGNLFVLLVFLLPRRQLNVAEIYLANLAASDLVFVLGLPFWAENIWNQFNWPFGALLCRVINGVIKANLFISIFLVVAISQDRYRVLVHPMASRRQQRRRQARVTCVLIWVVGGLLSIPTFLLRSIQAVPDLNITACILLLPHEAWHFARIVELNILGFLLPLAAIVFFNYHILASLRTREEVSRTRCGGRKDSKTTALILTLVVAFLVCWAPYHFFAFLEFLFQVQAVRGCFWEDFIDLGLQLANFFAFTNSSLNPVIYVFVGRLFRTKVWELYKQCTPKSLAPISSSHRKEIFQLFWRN
# Method: (§1) The agonistic or antagonistic action of substances can be quantified on the bradykinin receptor 1 (B1R) of the human and rat species with ectopically expressing cell lines (CHO K1 cells) and with the aid of a Ca^2+-sensitive dye (Fluo-4) using a fluorescent imaging plate reader (FLIPR). The indication in % activation is based on the Ca^2+ signal after addition of Lys-Des-Arg^9 bradykinin (0.5 nM) or Des-Arg^9 bradykinin (100 nM). Antagonists lead to a suppression of the Ca^2+ influx following administration of the agonist. The % inhibition in comparison with the maximum achievable inhibition is indicated.
# (§2) The agonistic or antagonistic action of substances can be determined on the bradykinin 1 receptor (B1R) of the human and rat species with the following assay. According to this assay, the Ca^2+ inflow through the channel is quantified with the aid of a Ca^2+-sensitive dye (Fluo-4 type, Molecular Probes Europe BV, Leiden, The Netherlands) in a fluorescent imaging plate reader (FLIPR, Molecular Devices, Sunnyvale, USA).
# (§3) Chinese hamster ovary cells (CHO K1 cells) which are stably transfected with the human B1R gene (hB1R cells) or the B1R gene of the rat (rB1R cells) are used. For functional investigations, these cells are plated-out onto black 96-well plates with a clear base (BD Biosciences, Heidelberg, Germany or Greiner, Frickenhausen, Germany) in a density of 20,000-35,000 cells/well. Overnight, the cells are incubated at 37° C. and 5% CO2 in culture medium (hB1R cells: Nutrient Mixture Ham's F12, Gibco Invitrogen GmbH, Karlsruhe, Germany or DMEM, Sigma-Aldrich, Taufkirchen, Germany; rB1R cells: D-MEM/F12, Gibco Invitrogen, Karlsruhe, Germany) with 10 vol. % FBS (foetal bovine serum, Gibco Invitrogen GmbH, Karlsruhe, Germany or PAN Biotech GmbH, Aidenbach, Germany). On the following day the cells are loaded with 2.13 μM Fluo-4 (Molecular Probes Europe BV, Leiden, The Netherlands) in HBSS buffer (Hank's buffered saline solution, Gibco Invitrogen GmbH, Karlsruhe, Germany) with 2.5 mM probenecid (Sigma-Aldrich, Taufkirchen, Germany) and 10 mM HEPES (Sigma-Aldrich, Taufkirchen, Germany) for 60 min at 37° C. The plates are the washed twice with HBSS buffer, and HBSS buffer which additionally contains 0.1% BSA (bovine serum albumin; Sigma-Aldrich, Taufkirchen, Germany), 5.6 mM glucose and 0.05% gelatine (Merck KGaA, Darmstadt, Germany) is added. After a further incubation of 20 minutes at room temperature, the plates are inserted into the FLIPR for Ca^2+ measurement. Alternatively they are washed with buffer A (15 mM HEPES, 80 mM NaCl, 5 mM KCl, 1.2 mM CaCl2, 0.7 mM MgSO4, 2 g/l glucose, 2.5 mM probenecid) and loaded with buffer A with added 2.5 μM Fluo-4 and 0.025% Pluronic F127 (Sigma-Aldrich, Taufkirchen, Germany). The cells are then washed twice with buffer A and incubated for 30 minutes with buffer A, which additionally contains 0.05% BSA and 0.05% gelatine, at room temperature and then used for Ca^2+ measurement in the FLIPR.
# (§4) The Ca^2+-dependent fluorescence is measured here before and after addition of substances (λex=488 nm, λem=540 nm). The quantification is performed by measuring the highest fluorescence intensity (FC, fluorescence counts) over time.
# (§5) The FLIPR protocol comprises two additions of substance. Test substances (10 μM) are first pipetted onto the cells and the Ca^2+ inflow is compared with the control (hB1R: Lys-Des-Arg^9 bradykinin>=50 nM; rB1R: Des-Arg^9 bradykinin 10 μM). The value in % activation based on the Ca^2+ signal after addition of Lys-Des-Arg^9 bradykinin (>=50 nM) or Des-Arg^9 bradykinin (10 μM) is obtained therefrom. After incubation for 10-20 minutes, Lys-Des-Arg^9 bradykinin (hB1R) or Des-Arg^9 bradykinin (rB1R) is applied in the EC80 concentration and the inflow of Ca^2+ is likewise determined. Antagonists lead to a suppression of the Ca^2+ inflow. The % inhibition in comparison with the maximum achievable inhibition is calculated. […]
# rat B1R = molecular target: T2, rat B1R (Rattus norvegicus, UniProt P97583); assay: Functional investigation on the bradykinin receptor 1 (B1R), FLIPR Ca2+ assay, rB1R cells; type: cell-based; conditions: % inhibition rat B1R at 10 μM; CHO K1 cells transfected with rat B1R; agonist Des-Arg9 bradykinin at EC80; read-out: % Inh. (rat B1R) 10 μM
# T2 construct: expressed in transfected cells; host or cells: CHO K1 cells
# T2 sequence (P97583 1-337): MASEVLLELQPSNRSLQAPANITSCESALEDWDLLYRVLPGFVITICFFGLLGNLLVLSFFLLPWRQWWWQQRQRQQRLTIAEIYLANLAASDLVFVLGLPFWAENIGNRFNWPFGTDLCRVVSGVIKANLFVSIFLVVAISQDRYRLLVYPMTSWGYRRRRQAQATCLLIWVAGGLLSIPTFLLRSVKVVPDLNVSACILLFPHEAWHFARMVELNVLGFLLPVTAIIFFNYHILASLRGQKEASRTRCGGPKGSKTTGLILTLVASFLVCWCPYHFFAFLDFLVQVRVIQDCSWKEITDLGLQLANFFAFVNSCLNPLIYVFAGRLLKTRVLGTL
# Method: as §1, §2, §3, §4, §5
structure (smiles),measurement,setting,value
"O=C(CC1CCCCN1S(=O)(=O)c1cccc(C(F)(F)F)c1)N1CCC2(CC1)CCC(c1cccc(F)c1)(N1CCCC1)CC2 (centres unmarked) [CC-01, 1-[3-(3-Fluorophenyl)-3-pyrrolidin-1-yl-9-azaspiro[5.5]undecan-9-yl]-2-[1-[[3-(trifluoromethyl)phenyl]sulfonyl]-piperidin-2-yl]-ethanone]",inhibition at 10 µM,human B1R,73%
same,inhibition at 10 µM,rat B1R,75%

# Source: patent US8278319B2, “Substituted spiroamine compounds” (Gruenenthal GmbH, priority 2008, dated 2012)
